Measurements as given in patent publication US20240415791A1, “Therapeutic methods and compositions for treating cancer using devimistat and a fatty acid oxidation inhibitor, a tyrosine kinase inhibitor, a glutaminase inhibitor, and/or a glycolysis inhibitor” (Cornerstone Pharmaceuticals, Inc., priority 2021, published 2024).

Legend:
[1] = cited from earlier work
[2] = system: human H460 NSCLC xenografts; experiment: Oral devimistat in H460 NSCLC xenografts; format: in vivo, mice; settings: oral 100 mg/kg on days 8, 15, 22, 29; vs 5% dextrose or untreated
Protocol: Human H460 NSCLC cells were obtained from American Type Cell Culture (ATCC) (catalog no. HTB-177, Manassas, VA). These cells tested negative for viral contamination using the Mouse Antibody Production (MAP) test, performed by Charles River Labs Molecular Division, upon the receipt of the tumor cells from ATCC. The tumor cells were maintained at 37° C. in a humidified 5% CO2 atmosphere in T225 tissue culture flasks containing 50 mL of Roswell Park Memorial Institute (RPMI)-1640 solution with 10% Fetal Bovine Serum (FBS) and 2 mM L-glutamine. Cells were split at a ratio of 1:10 every 2-3 days by trypsinization and resuspended in fresh medium in a new flask. Cells were harvested for experiments in the same way at 70-90% confluency.
CD1-Nu/Nu female mice, ˜4-6 weeks old were obtained from Charles River Laboratories. Mice were housed 5 to a cage in a micro-isolator room in the Department of Animal Laboratory Research of New York State University (SUNY) at Stony Brook. Light-dark cycles were 12 h each daily, with light from 7 a.m. to 7 p.m. […]
An acclimation period of 7 days was allowed between the arrival of the animal at the study site before tumor inoculation and experimentation. […] Tumor dimensions (length and width) were measured daily before, during and after treatment (using Vernier calipers) and the tumor volume was calculated using the prolate ellipsoid formula: (length×width^2)/2. […]

BxPC-3 xenografts = experiment: Oral devimistat in BxPC3 pancreatic cancer xenografts; format: in vivo, mice; settings: weekly for 4 weeks
Protocol: An acclimation period of 7 days was allowed between the arrival of the animal at the study site before tumor inoculation and experimentation. Mice were inoculated subcutaneously (SC) in the right flank with 2×10^6 human H460 NSCLC or BxPC3 pancreatic cancer cells that were suspended in 0.1 mL of Dulbeco's Phosphate Buffered Salt (PBS) solution using a 1 cc syringe with a 27⅝ gauge needle. Tumor dimensions (length and width) were measured daily before, during and after treatment (using Vernier calipers) and the tumor volume was calculated using the prolate ellipsoid formula: (length×width^2)/2. Treatment with test or control articles began 8 days post tumor cell implantation when the tumor was approximately 300 mm^3.
A similar study was conducted in CD-1 nude mice (n=9) inoculated with 2×10^6 BxPC-3 cells. The study was initiated when tumors reached an average size of 150 mm^3 (day 0) and devimistat was administered at an oral dose of […] for 4 weeks. A comparator arm (n=9) was conducted with IP treatment at a weekly dose of 25 mg/kg.

AsPC1 cells [3] = experiment: Devimistat-induced cell death (ATP after recovery) in AsPC1 cells; format: cell-based, human; settings: exogenous nutrient-free conditions
Protocol: Cells were plated at 80% confluency in complete RPMI in black, clear bottom 96-well plates or 35-mm dishes for ATP, protein and glycogen analysis, or glass coverslips for fluorescence visualization. […] Prior to drug treatment, cells were incubated in a nutrient-free carbonate buffered salt solution (CBS2) for 3 hours. Drug treatments were then carried out in CBS2 with addition of nutrient sources and/or chemical agents as described in the Examples and Figures.
LOGIC: High throughput, plate reader assays for cell death essentially always ultimately depend on metabolic activity of cells to identify viability, directly or indirectly. Thus, strong inhibition of metabolic activity by anti-metabolism agents like those described herein can confound cell death analysis by such assays. […] The inventors thus used a recovery-based assay wherein cells are treated with anti-metabolic agents under conditions where mitochondrial metabolism is (or becomes) limiting on viability. After experimental treatment, drug and media are removed and cells are allowed to recover in serum-free RPMI. RPMI provides high levels of glucose in support of glycolytic ATP generation (independently of mitochondrial function), allowing viable cells to recover ATP levels that are ultimately measured in the plate assay to score cell viability.
Survival is assessed by conventional luminescence measurement of ATP levels after this recovery.
TECHNICAL DETAILS: Immediately after drug treatments, acute ATP levels of cells in black, clear bottom 96-well plates were measured using the CellTiter-Glo® Luminescent Cell Viability Assay (catalog #G775B) following Promega (Madison, WI) protocols. […] After this recovery period ATP levels were measured using the CellTiter-Glo® Luminescent Cell Viability Assay as described above.
Survival is assessed by conventional luminescence measurement of ATP levels after this recovery. See the Methods section above for a detailed description of this assay and its validation.

AsPC1 cells [4] = experiment: Glycogen content in AsPC1 cells; format: cell-based, human; settings: AsPC1, CBS2, 3 hours
Protocol: Glycogen was quantified using the Glycogen Assay Kit II (colorimetric) from AbCam (ab169558) according to manufacturer's instructions. Briefly, approximately 2×10^6 cells were washed with ice-cold PBS and collected via scraping in 300 μL ice-cold ddH2O. Cells were immediately sonicated on ice for 5× […] pulses with a probe sonicator (Misonix Inc, model XL2000), then heated to 80° C. for 10 min. Samples were stored O/N at −20° C., then thawed, centrifuged at 12,000×g for 10 min and the supernatants collected for glycogen hydrolysis and quantification according to manufacturer's instructions.
C. […] Cells were treated in CBS2 for 3 hours with 30 μM devimistat or mock treated (FIG. 2C, left), or treated for 3 hours with the indicated devimistat doses (FIG. 2C, right).
D. Effects of anti-metabolism agents on glycogen consumption in PANC1 and AsPC1 cells. […] Glycogen content was measured in cell lysates (see Methods, above) and the results are presented in the left and middle graphs in FIG. 3D (note the different vertical scales for PANC1 and AsPC1 plots).

SMILES: O=C(O)CCCCC(CCSCc1ccccc1)SCc1ccccc1 (stereo not drawn) [devimistat, 6,8-bis(benzylsulfanyl)octanoic acid]
- half-life after IV dosing ([1]; IV dosing): 1 to 2 h
- peak serum concentration after clinical infusion ([1]; clinical IV infusion): ~100 µM
- tumor growth in H460 NSCLC xenografts [2]: grew much more slowly
- tumor growth in BxPC3 xenografts (BxPC-3 xenografts): especially pronounced
- sensitivity of AsPC1 line to devimistat monotherapy (AsPC1 cells [3]): resistant to devimistat monotherapy
- glycogen consumption (AsPC1 cells [4]): accelerated
